Read-outs that look alike come from different tables or passages of the source.
Columns and labels:
EGFR del19/T790M/C797S = EGFR del19/T790M/C797S (Homo sapiens, UniProt P00533, C797S/DEL746-750/T790M); assay: Biochemical EGFR kinase assay (Lance Ultra TR-FRET), triple mutant del19/T790M/C797S
Description: (§1) Biochemical EGFR kinase assays were conducted using Lance Ultra time-resolved fluorescence resonance energy transfer (TR-FRET) technology from Perkin-Elmer. Compounds of the invention were initially diluted to 20 mM in 100% DMSO for storage and made into kinase buffer solution to create a compound concentration ranging from 0.003 μM and 10 μM.
(§2) Each kinase reactions were incubated at room temperature for 1 hour and then stopped by the addition of 4 μL of stop solution (10 mM EDTA). The specific Europium-labeled-anti-phosphopeptide antibody (PerkinElmer, AD0069) diluted in LANCE detection buffer was then added to a final concentration of 2 nM. After 60 minutes incubation at room temperature the LANCE signal was measured on an EnVision Multilabel Reader (Perkin-Elmer). Excitation wavelength was set at 320 nm and emission monitored at 615 nm (donor) and 665 nm (acceptor). The IC50 values were determined using GraphPad prism software (GraphPad Software, Inc., San Diego, CA, USA).

EGFR L858R/T790M/C797S = EGFR L858R/T790M/C797S (Homo sapiens, UniProt P00533, C797S/L858R/T790M); assay: Biochemical EGFR kinase assay (Lance Ultra TR-FRET), triple mutant L858R/T790M/C797S
EGFR L858R/T790M/C797S, sequence (P00533 25-1210 T790M/C797S/L858R): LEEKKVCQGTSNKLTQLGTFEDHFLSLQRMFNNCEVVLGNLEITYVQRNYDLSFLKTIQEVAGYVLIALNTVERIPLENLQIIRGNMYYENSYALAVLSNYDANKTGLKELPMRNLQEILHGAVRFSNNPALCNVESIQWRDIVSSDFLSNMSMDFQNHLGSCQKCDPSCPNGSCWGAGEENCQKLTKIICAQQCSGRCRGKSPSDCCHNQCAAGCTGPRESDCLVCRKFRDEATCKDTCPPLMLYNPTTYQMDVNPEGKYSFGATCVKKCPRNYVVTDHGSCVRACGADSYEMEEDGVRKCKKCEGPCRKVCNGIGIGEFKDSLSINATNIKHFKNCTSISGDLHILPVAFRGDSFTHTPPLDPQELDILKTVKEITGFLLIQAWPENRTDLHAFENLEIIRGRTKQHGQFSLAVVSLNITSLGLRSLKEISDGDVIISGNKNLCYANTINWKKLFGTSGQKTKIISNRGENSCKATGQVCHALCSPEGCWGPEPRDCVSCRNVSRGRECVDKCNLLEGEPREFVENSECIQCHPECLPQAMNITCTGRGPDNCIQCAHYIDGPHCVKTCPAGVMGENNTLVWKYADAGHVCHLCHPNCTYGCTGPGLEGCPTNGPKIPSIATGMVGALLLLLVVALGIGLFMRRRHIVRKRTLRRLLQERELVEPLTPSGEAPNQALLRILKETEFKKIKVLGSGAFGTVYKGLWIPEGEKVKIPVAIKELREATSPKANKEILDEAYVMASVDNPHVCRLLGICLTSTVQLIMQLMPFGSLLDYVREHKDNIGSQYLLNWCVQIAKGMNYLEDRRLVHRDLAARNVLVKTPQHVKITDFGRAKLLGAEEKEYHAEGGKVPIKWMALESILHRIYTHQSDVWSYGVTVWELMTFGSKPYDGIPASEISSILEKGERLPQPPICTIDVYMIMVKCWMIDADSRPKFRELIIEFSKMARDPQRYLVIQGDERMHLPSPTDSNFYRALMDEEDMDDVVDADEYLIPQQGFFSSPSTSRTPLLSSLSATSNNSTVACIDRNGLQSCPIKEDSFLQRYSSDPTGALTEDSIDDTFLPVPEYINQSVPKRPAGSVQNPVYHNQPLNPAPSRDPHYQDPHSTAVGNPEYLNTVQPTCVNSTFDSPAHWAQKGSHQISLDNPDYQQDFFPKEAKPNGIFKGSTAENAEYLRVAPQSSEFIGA
Description: as §1, §2

EGFR del19/C797S = EGFR del19/C797S (Homo sapiens, UniProt P00533, C797S/DEL746-750); assay: Biochemical EGFR kinase assay (Lance Ultra TR-FRET), double mutant del19/C797S
EGFR del19/C797S, sequence (P00533 with tags, fused parts or gaps DEL746-750/C797S): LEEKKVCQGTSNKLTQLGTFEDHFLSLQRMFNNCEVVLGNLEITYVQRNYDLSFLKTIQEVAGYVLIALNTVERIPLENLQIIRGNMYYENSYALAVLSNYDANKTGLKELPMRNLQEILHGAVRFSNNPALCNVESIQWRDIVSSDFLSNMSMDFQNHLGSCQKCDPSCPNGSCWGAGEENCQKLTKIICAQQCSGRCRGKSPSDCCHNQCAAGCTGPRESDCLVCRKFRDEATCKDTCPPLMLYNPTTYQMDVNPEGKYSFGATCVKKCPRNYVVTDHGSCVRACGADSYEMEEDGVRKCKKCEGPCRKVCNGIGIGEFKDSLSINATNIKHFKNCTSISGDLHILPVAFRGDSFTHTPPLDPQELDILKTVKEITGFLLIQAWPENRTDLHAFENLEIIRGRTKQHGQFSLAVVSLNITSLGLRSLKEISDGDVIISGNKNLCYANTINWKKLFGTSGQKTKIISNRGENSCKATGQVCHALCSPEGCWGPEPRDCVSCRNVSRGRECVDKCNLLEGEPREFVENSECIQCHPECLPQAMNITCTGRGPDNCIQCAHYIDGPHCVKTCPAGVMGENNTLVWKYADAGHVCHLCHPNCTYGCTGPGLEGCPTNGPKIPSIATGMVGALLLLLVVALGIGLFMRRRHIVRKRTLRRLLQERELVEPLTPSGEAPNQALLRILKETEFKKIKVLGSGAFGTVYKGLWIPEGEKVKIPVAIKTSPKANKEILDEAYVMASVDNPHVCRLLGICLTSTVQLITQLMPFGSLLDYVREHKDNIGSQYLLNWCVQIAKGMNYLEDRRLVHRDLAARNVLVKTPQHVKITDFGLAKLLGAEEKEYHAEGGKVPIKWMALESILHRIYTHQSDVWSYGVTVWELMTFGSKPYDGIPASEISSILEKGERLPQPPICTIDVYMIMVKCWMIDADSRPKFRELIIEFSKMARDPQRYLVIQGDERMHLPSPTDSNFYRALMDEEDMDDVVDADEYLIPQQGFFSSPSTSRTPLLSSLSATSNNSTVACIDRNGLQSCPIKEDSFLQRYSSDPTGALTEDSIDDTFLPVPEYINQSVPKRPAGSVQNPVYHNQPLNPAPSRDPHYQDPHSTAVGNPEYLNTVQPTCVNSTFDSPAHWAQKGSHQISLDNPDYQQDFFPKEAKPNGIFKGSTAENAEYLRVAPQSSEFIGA
Description: as §1, §2

EGFR L858R/C797S = EGFR L858R/C797S (Homo sapiens, UniProt P00533, C797S/L858R); assay: Biochemical EGFR kinase assay (Lance Ultra TR-FRET), double mutant L858R/C797S
EGFR L858R/C797S, sequence (P00533 25-1210 C797S/L858R): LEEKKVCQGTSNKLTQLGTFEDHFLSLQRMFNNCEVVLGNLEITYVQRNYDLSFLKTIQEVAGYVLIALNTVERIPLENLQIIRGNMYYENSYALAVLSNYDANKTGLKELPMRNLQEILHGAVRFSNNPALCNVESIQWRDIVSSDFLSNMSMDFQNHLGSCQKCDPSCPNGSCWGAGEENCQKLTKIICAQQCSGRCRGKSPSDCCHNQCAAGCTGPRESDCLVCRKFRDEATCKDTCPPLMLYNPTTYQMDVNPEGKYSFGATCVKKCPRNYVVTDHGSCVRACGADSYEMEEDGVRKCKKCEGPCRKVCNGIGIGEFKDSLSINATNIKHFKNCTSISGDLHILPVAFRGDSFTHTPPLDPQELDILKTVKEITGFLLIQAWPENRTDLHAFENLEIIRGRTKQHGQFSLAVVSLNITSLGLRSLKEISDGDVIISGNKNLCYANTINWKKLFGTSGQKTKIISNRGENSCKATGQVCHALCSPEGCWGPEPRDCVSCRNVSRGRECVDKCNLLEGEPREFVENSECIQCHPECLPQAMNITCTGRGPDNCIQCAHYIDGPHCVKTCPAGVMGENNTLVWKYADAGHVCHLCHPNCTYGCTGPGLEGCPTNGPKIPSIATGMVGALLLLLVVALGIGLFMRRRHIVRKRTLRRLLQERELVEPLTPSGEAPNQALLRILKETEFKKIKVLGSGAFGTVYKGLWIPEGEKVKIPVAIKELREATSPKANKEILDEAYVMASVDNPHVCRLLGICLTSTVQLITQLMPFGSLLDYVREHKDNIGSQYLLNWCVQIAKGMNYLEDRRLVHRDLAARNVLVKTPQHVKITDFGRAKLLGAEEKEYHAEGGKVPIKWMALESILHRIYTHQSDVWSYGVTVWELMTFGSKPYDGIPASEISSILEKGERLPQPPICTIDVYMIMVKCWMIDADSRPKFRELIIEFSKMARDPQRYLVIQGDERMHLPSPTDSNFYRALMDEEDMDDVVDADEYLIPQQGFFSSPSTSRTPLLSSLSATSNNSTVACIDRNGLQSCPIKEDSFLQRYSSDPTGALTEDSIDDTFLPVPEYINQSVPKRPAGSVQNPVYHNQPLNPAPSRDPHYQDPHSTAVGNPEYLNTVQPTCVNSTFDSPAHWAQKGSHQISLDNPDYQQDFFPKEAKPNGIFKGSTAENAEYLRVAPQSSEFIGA
Description: as §1, §2

EGFR wildtype (WT) = EGFR wildtype (WT) (Homo sapiens, UniProt P00533); assay: Biochemical EGFR kinase assay (Lance Ultra TR-FRET), wildtype
Description: as §1, §2

[1] = IC50 del19/T790M/C797S (nM) 100 μM ATP, 100 μM ATP
[2] = IC50 L858R/T790M/C797S (nM) 100 μM ATP, 100 μM ATP
[3] = IC50 del19/C797S (nM) 100 μM ATP, 100 μM ATP
[4] = IC50 L858R/C797S (nM) 100 μM ATP, 100 μM ATP
[5] = IC50 WT (nM) 100 μM ATP, 100 μM ATP
[6] = Km ATP, read-out: IC50 del19/T790M/C797S (nM) Km ATP
[7] = Km ATP, read-out: IC50 L858R/T790M/C797S (nM) Km ATP
[8] = Km ATP, read-out: IC50 del19/C797S (nM) Km ATP
[9] = Km ATP, read-out: IC50 L858R/C797S (nM) Km ATP
[10] = Km ATP, read-out: IC50 WT (nM) Km ATP

EGFR del19/T790M/C797S, sequence (P00533 with tags, fused parts or gaps DEL746-750/T790M/C797S): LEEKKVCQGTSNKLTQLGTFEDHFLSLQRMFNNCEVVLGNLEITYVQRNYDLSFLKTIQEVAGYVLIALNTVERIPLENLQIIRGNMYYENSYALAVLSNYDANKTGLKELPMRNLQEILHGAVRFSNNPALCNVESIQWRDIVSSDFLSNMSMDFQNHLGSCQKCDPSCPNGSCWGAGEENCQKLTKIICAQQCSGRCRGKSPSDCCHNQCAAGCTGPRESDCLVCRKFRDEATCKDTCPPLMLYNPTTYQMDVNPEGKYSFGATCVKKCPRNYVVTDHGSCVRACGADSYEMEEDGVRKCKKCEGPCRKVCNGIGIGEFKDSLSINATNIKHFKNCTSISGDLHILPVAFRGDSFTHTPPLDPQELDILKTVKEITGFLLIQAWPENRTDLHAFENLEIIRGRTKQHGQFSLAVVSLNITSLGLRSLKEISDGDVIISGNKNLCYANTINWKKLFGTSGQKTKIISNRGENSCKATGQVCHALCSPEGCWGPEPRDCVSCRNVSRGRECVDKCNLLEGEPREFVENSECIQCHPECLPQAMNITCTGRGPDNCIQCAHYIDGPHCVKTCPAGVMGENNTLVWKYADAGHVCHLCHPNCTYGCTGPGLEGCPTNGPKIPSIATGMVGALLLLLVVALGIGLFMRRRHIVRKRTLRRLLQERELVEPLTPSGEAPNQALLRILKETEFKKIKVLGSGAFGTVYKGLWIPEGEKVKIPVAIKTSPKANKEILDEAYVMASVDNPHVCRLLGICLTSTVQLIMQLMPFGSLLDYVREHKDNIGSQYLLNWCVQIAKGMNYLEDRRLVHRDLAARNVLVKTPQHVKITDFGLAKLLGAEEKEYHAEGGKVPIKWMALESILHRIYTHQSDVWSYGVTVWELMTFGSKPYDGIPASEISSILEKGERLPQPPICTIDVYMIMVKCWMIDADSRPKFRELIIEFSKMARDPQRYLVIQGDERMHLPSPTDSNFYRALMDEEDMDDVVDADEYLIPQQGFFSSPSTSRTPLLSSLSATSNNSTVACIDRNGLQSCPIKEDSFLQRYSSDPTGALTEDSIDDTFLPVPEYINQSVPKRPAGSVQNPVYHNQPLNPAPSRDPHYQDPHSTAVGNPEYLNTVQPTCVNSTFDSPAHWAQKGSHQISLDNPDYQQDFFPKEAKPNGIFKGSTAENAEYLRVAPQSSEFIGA

| Structure (SMILES) | IC50 (EGFR del19/T790M/C797S; [1]) [nM] | IC50 (EGFR L858R/T790M/C797S; [2]) [nM] | IC50 (EGFR del19/C797S; [3]) [nM] | IC50 (EGFR L858R/C797S; [4]) [nM] | IC50 (EGFR wildtype (WT); [5]) [nM] | IC50 (EGFR del19/T790M/C797S; read-out: IC50 del19/T790M/C797S (nM) 100 μM ATP, 100 μM ATP) [nM] | IC50 (EGFR L858R/T790M/C797S; read-out: IC50 L858R/T790M/C797S (nM) 100 μM ATP, 100 μM ATP) [nM] | IC50 (EGFR del19/C797S; read-out: IC50 del19/C797S (nM) 100 μM ATP, 100 μM ATP) [nM] | IC50 (EGFR L858R/C797S; read-out: IC50 L858R/C797S (nM) 100 μM ATP, 100 μM ATP) [nM] | IC50 (EGFR wildtype (WT); read-out: IC50 WT (nM) 100 μM ATP, 100 μM ATP) [nM] | IC50 (EGFR del19/T790M/C797S; [6]) [nM] | IC50 (EGFR L858R/T790M/C797S; [7]) [nM] | IC50 (EGFR del19/C797S; [8]) [nM] | IC50 (EGFR L858R/C797S; [9]) [nM] | IC50 (EGFR wildtype (WT); [10]) [nM] |
| --- | --- | --- | --- | --- | --- | --- | --- | --- | --- | --- | --- | --- | --- | --- | --- |
| CC(O)C(C)(C)Nc1cc(Nc2ccnc(-c3cnn(S(=O)(=O)C4CC4)c3)n2)ncc1-c1ccn(C(F)F)n1 (centres unmarked) [Example 7, 3-((2-((2-(1-(Cyclopropylsulfonyl)-1H-pyrazol-4-yl)pyrimidin-4-yl)amino)-5-(1-(difluoromethyl)-1H-pyrazol-3-yl)pyridin-4-yl)amino)-3-methylbutan-2-ol] | 2.6 | 6 | 281 | 246 | > 10000 |  |  |  |  |  |  |  |  |  |  |
| CC(C)(O)[C@H]1CC[C@@H](Nc2cc(Nc3ccnc(-c4cnn(S(=O)(=O)C5CC5)c4)n3)ncc2-c2ccn(C(F)F)n2)CC1 [Example 8, 2-((1s,4s)-4-((2-((2-(1-(Cyclopropylsulfonyl)-1H-pyrazol-4-yl)pyrimidin-4-yl)amino)-5-(1-(difluoromethyl)-1H-pyrazol-3-yl)pyridin-4-yl)amino)cyclohexyl)propan-2-ol] | 5.5 | 5.7 | 18.8 | 21.9 | > 10000 |  |  |  |  |  |  |  |  |  |  |
| O=S(=O)(C1CC1)n1cc(-c2nccc(Nc3cc(N[C@H]4CC[C@](O)(C(F)(F)F)CC4)c(-c4ccn(C(F)F)n4)cn3)n2)cn1 [Example 11, (1s,4s)-4-((2-((2-(1-(Cyclopropylsulfonyl)-1H-pyrazol-4-yl)pyrimidin-4-yl)amino)-5-(1-(difluoromethyl)-1H-pyrazol-3-yl)pyridin-4-yl)amino)-1-(trifluoromethyl)cyclohexan-1-ol] |  |  |  |  |  | 8.6 | 21.8 | 553 | 267 | > 10000 |  |  |  |  |  |
| O=S(=O)(C1CC1)n1cc(-c2nccc(Nc3cc(N[C@@H]4CC[C@@H](O)C4)c(-c4ccn(C(F)F)n4)cn3)n2)cn1 [Example 12, (1R,3R)-3-((2-((2-(1-(Cyclopropylsulfonyl)-1H-pyrazol-4-yl)pyrimidin-4-yl)amino)-5-(1-(difluoromethyl)-1H-pyrazol-3-yl)pyridin-4-yl)amino)cyclopentan-1-ol] | 1.2 | 2.8 | 30 | 46.9 | > 10000 |  |  |  |  |  |  |  |  |  |  |
| O=S(=O)(C1CC1)n1cc(-c2nccc(Nc3cc(N[C@H]4CCCNCC4)c(-c4ccn(C(F)F)n4)cn3)n2)cn1 [Example 17, (S)-N^4-(Azepan-4-yl)-N^2-(2-(1-(cyclopropylsulfonyl)-1H-pyrazol-4-yl)pyrimidin-4-yl)-5-(1-(difluoromethyl)-1H-pyrazol-3-yl)pyridine-2,4-diamine] | 1 | 2.6 | 19.1 | 691 | > 10000 |  |  |  |  |  |  |  |  |  |  |
| O=S(=O)(C1CC1)n1cc(-c2nccc(Nc3cc(N[C@H]4CC[C@H](O)C4)c(-c4ccn(C(F)F)n4)cn3)n2)cn1 [Example 20, (1S,3S)-3-((2-((2-(1-(Cyclopropylsulfonyl)-1H-pyrazol-4-yl)pyrimidin-4-yl)amino)-5-(1-(difluoromethyl)-1H-pyrazol-3-yl)pyridin-4-yl)amino)cyclopentan-1-ol] | 0.9 |  | 3.4 | 51.9 | > 10000 |  |  |  |  |  | 0.3 | 0.2 | 1 | 3.1 | 21.1 |
| O=S(=O)(C1CC1)n1cc(-c2nccc(Nc3cc(N[C@H]4CCC[C@H](O)C4)c(-c4ccn(C(F)F)n4)cn3)n2)cn1 [Example 21, (1S,3S)-3-((2-((2-(1-(Cyclopropylsulfonyl)-1H-pyrazol-4-yl)pyrimidin-4-yl)amino)-5-(1-(difluoromethyl)-1H-pyrazol-3-yl)pyridin-4-yl)amino)cyclohexan-1-ol] | 1.3 | 0.9 | 0.7 | 8.9 | 5010 |  |  |  |  |  | 0.3 | 0.2 | 0.3 | 0.9 | 5.4 |

The remaining compounds from weak to strong by IC50 (EGFR del19/T790M/C797S; [1]), led by results:

| IC50 (EGFR del19/T790M/C797S; [1]) [nM] | IC50 (EGFR L858R/T790M/C797S; [2]) [nM] | IC50 (EGFR del19/C797S; [3]) [nM] | IC50 (EGFR L858R/C797S; [4]) [nM] | IC50 (EGFR wildtype (WT); [5]) [nM] | IC50 (EGFR del19/T790M/C797S; read-out: IC50 del19/T790M/C797S (nM) 100 μM ATP, 100 μM ATP) [nM] | IC50 (EGFR L858R/T790M/C797S; read-out: IC50 L858R/T790M/C797S (nM) 100 μM ATP, 100 μM ATP) [nM] | IC50 (EGFR del19/C797S; read-out: IC50 del19/C797S (nM) 100 μM ATP, 100 μM ATP) [nM] | IC50 (EGFR L858R/C797S; read-out: IC50 L858R/C797S (nM) 100 μM ATP, 100 μM ATP) [nM] | IC50 (EGFR wildtype (WT); read-out: IC50 WT (nM) 100 μM ATP, 100 μM ATP) [nM] | IC50 (EGFR del19/T790M/C797S; [6]) [nM] | IC50 (EGFR L858R/T790M/C797S; [7]) [nM] | IC50 (EGFR del19/C797S; [8]) [nM] | IC50 (EGFR L858R/C797S; [9]) [nM] | IC50 (EGFR wildtype (WT); [10]) [nM] | Structure (SMILES) |
| --- | --- | --- | --- | --- | --- | --- | --- | --- | --- | --- | --- | --- | --- | --- | --- |
| 0.7 | 1 | 3.8 | 12.4 | 5620 |  |  |  |  |  |  |  |  |  |  | O=S(=O)(C1CC1)n1cc(-c2nccc(Nc3cc(N[C@@H]4CC[C@H](O)C4)c(-c4ccn(C(F)F)n4)cn3)n2)cn1 [Example 13, (1S,3R)-3-((2-((2-(1-(Cyclopropylsulfonyl)-1H-pyrazol-4-yl)pyrimidin-4-yl)amino)-5-(1-(difluoromethyl)-1H-pyrazol-3-yl)pyridin-4-yl)amino)cyclopentan-1-ol] |
| 0.6 | 0.9 | 4.9 | 14.2 | 7510 |  |  |  |  |  |  |  |  |  |  | O=S(=O)(C1CC1)n1cc(-c2nccc(Nc3cc(N[C@H]4CC[C@@H](O)C4)c(-c4ccn(C(F)F)n4)cn3)n2)cn1 [Example 14, (1R,3S)-3-((2-((2-(1-(Cyclopropylsulfonyl)-1H-pyrazol-4-yl)pyrimidin-4-yl)amino)-5-(1-(difluoromethyl)-1H-pyrazol-3-yl)pyridin-4-yl)amino)cyclopentan-1-ol] |
| 0.6 | 0.9 | 3.2 | 9.7 | > 10000 |  |  |  |  |  |  |  |  |  |  | O=S(=O)(C1CC1)n1cc(-c2nccc(Nc3cc(NC4CCC(O)C4)c(-c4ccn(C(F)F)n4)cn3)n2)cn1 (centres unmarked) [Example 15, 3-((2-((2-(1-(Cyclopropylsulfonyl)-1H-pyrazol-4-yl)pyrimidin-4-yl)amino)-5-(1-(difluoromethyl)-1H-pyrazol-3-yl)pyridin-4-yl)amino)cyclopentan-1-ol] |
| 0.5 | 0.5 | 4.3 | 7.6 | 7100 |  |  |  |  |  |  |  |  |  |  | O=S(=O)(C1CC1)n1cc(-c2nccc(Nc3cc(N[C@H]4CC[C@@H](NCCF)CC4)c(-c4ccn(C(F)F)n4)cn3)n2)cn1 [Example 9, N^2-(2-(1-(Cyclopropylsulfonyl)-1H-pyrazol-4-yl)pyrimidin-4-yl)-5-(1-(difluoromethyl)-1H-pyrazol-3-yl)-N^4-((1s,4s)-4-((2-fluoroethyl)amino)cyclohexyl)pyridine-2,4-diamine] |
| 0.4 | 0.6 | 1.4 | 13 | > 10000 |  |  |  |  |  | 0.3 | 0.2 | 0.9 | 1.9 | 3 | O=S(=O)(C1CC1)n1cc(-c2nccc(Nc3cc(N[C@H]4CC[C@@H](CO)CC4)c(-c4ccn(C(F)F)n4)cn3)n2)cn1 [Example 18, ((1s,4s)-4-((2-((2-(1-(Cyclopropylsulfonyl)-1H-pyrazol-4-yl)pyrimidin-4-yl)amino)-5-(1-(difluoromethyl)-1H-pyrazol-3-yl)pyridin-4-yl)amino)cyclohexyl)methanol] |
| 0.3 | 0.3 | 2 | 2.1 | 3390 |  |  |  |  |  |  |  |  |  |  | CNC1CCC(Nc2cc(Nc3ccnc(-c4cnn(S(=O)(=O)C5CC5)c4)n3)ncc2-c2ccn(C(F)F)n2)CC1 (centres unmarked) [Example 16, N^2-(2-(1-(Cyclopropylsulfonyl)-1H-pyrazol-4-yl)pyrimidin-4-yl)-5-(1-(difluoromethyl)-1H-pyrazol-3-yl)-N^4-((1s,4s)-4-(methylamino)cyclohexyl)pyridine-2,4-diamine] |
| 0.3 | 0.5 | 0.7 | 3.5 | > 10000 |  |  |  |  |  | 0.3 | 0.1 | 0.5 | 0.7 | 10 | O=C1CC[C@]2(CC[C@H](Nc3cc(Nc4ccnc(-c5cnn(S(=O)(=O)C6CC6)c5)n4)ncc3-c3ccn(C(F)F)n3)CC2)N1 [Example 19, (5s,8s)-8-((2-((2-(1-(Cyclopropylsulfonyl)-1H-pyrazol-4-yl)pyrimidin-4-yl)amino)-5-(1-(difluoromethyl)-1H-pyrazol-3-yl)pyridin-4-yl)amino)-1-azaspiro[4.5]decan-2-one] |
